Reference: patent US12213485B2, “Synergistic methods of using benzoxaborole compounds and preservative gases as an antimicrobial for crops” (AGROFRESH INC., priority 2016, dated 2025)

How the values were obtained:
[1] = system: Mucor piriformis (MUCOPI) on strawberries; assay: In vivo disease severity on wound-inoculated strawberries, benzoxaborole and CO2 chamber treatment
Source text: (§1) The following experiments were used to determine synergy between benzoxaborole Compounds A, B, and/or C and preservative gases, such as carbon dioxide (CO2) and sulfur dioxide (SO2). Specific rates or any other unique conditions are noted within the corresponding results tables. Each experiment comprised an air-tight 36 liter (L) chamber (Fisher Scientific, P/N: 08-642-23C), fitted with a bulkhead septum port (Swagelok, P/N: SS-400-61, Solon, OH) used for treatment delivery, as well as for monitoring (using needle extraction) carbon dioxide (CO2), sulfur dioxide (SO2), oxygen (O2) or other headspace samples. A variable speed fan (Thermaltake, Mobile Fan II, P/N: A1888, Taipei City, Taiwan) set to low was also used to circulate the headspace atmosphere.
(§2) For in vivo experiments, eight strawberry fruits per repetition were surface sterilized with a 70% ethanol solution. After sterilization, the strawberries were rinsed twice with deionized water. Each strawberry fruit was wounded using a T15 screwdriver tip to a uniform depth of eight mm (8 mm). Each fruit wound was inoculated with 20 μL of 1×10^5 spores/ml pathogen spore suspension of B. cinerea or M. piriformis. The strawberries were then placed with the stem facing downwards inside a 1-pound strawberry clamshell.
(§3) For treatment, the inoculated agar plates and clamshells containing fruits (e.g., strawberries and grapes) were placed inside a 36 L experimental chamber unit, which was then sealed prior to commencement of compound treatments. The chamber remained sealed throughout the duration of the experiment except for addition of treatment to the chamber, and post-treatment ventilation.
(§4) Benzoxaborole Compound A or Compound B was dissolved in acetone and dispensed onto a 60 mm Whatman #1 filter paper disk using a pipette. The acetone was permitted to evaporate for five minutes before the disk was placed on a watch glass in each chamber.
(§5) A 12% CO2 headspace treatment was then established in the chamber by permitting 10 grams (g) of crushed dry ice placed in a weigh boat in the chamber to evaporate in the sealed chamber. However, the bulkhead port of the chamber was loosened to permit the release of internal pressure. Optionally, a fan was used during the initial hours of treatment (i.e., up to about 6 hours of treatment) to ensure uniform treatment exposure of fruits and plates.
(§6) Untreated controls and CO2 treated chambers contained an acetone-treated disk with similar evaporation for five minutes. CO2 and O2 levels in the chamber were monitored using a handheld gas detector (Dansensor Checkpoint II; P/N 600111, Ringsted, Denmark). Temperature and relative humidity were also monitored within the chamber using data loggers (Onset HOBO; P/N U12-013, Bourne, MA).
(§7) The chamber for all in vitro and in vivo experiments was held at room temperature (i.e., from about 21° C. to about 23° C.) typically for about 3.5 days (i.e., about 84 hours) of treatment exposure. Chambers were then vented. After an additional 2-3 days with the chamber at room temperature, post-treatment radial growth (in mm) of each in vitro pathogen (see Examples 1-7, Tables 1-7) was measured on the inoculated plates using electronic calipers (Mitutoyo, P/N: CD-6-CX, Aurora, IL). In addition, the point of inoculation on fruits was assessed for indication of in vivo disease incidence (e.g., yes or no) and severity of disease incidence (see Examples 8-16, Tables 8-16). Disease severity was rated on a scale ranging from 0 to 4, where “0” indicated no disease severity, “1” indicated minimal disease severity, “2” indicated medium disease severity, “3” indicated high disease severity, and “4” indicated exceptionally high disease severity. […]

[2] = system: Botrytis cinerea (BOTRCI) on strawberries; assay: as above
Source text: as §1, §2, §3, §4, §5, §6, §7

OB1OCc2cc(F)ccc21 [Compound A]
Colby Calculation ([1]; Table 10, compound 0.14 mg/L + 12% CO2, Colby equation E=x+y−x*y/100): 106.8 | Growth (Severity, 0 to 4) Cmpd + 12% CO2 ([1]; Table 10, compound 0.14 mg/L + 12% CO2, evaluated 2 days after treatment, fan first 6 hours, >90% R.H.): 0.2 | Growth (Severity, 0 to 4) Cmpd ([1]; Table 10, compound alone 0.14 mg/L, evaluated 2 days after treatment, fan first 6 hours, >90% R.H.): 0.5 | Colby Calculation ([2]; Table 8, compound 0.14 mg/L + 12% CO2, Colby equation E=x+y−x*y/100): 176.2 | Growth (Severity, 0 to 4) Cmpd + 12% CO2 ([2]; Table 8, compound 0.14 mg/L + 12% CO2, evaluated 2 days after treatment, 4 replicates, fan first 6 hours, >90% R.H.): 0.4 | Growth (Severity, 0 to 4) Cmpd ([2]; Table 8, compound alone 0.14 mg/L, evaluated 2 days after treatment, 4 replicates, fan first 6 hours, >90% R.H.): 2.1 | Colby Calculation ([2]; Table 9, compound 0.14 mg/L + 12% CO2, Colby equation E=x+y−x*y/100): 107.6 | Growth (Severity, 0 to 4) Cmpd + 12% CO2 ([2]; Table 9, compound 0.14 mg/L + 12% CO2, evaluated 3 days after treatment, fan first 6 hours, >90% R.H.): 0.8 | Growth (Severity, 0 to 4) Cmpd ([2]; Table 9, compound alone 0.14 mg/L, evaluated 3 days after treatment, fan first 6 hours, >90% R.H.): 1.1 | Colby Calculation ([2]; Table 11, compound 0.14 mg/L + 12% CO2, Colby equation E=x+y−x*y/100): 109.0 | Growth (Severity, 0 to 4) Cmpd + 12% CO2 ([2]; Table 11, compound 0.14 mg/L + 12% CO2, evaluated 2 days after treatment, fan first 6 hours, >90% R.H.): 0.8 | Growth (Severity, 0 to 4) Cmpd ([2]; Table 11, compound alone 0.14 mg/L, evaluated 2 days after treatment, fan first 6 hours, >90% R.H.): 1.4 | Colby Calculation ([2]; Table 12, compound 0.14 mg/L + 12% CO2, Colby equation E=x+y−x*y/100): 107.9 | Growth (Severity, 0 to 4) Cmpd + 12% CO2 ([2]; Table 12, compound 0.14 mg/L + 12% CO2, evaluated 2 days after treatment, fan first 6 hours, >90% R.H.): 0.4 | Growth (Severity, 0 to 4) Cmpd ([2]; Table 12, compound alone 0.14 mg/L, evaluated 2 days after treatment, fan first 6 hours, >90% R.H.): 0.7 | Colby Calculation ([2]; Table 13, compound 0.14 mg/L + 12% CO2, Colby equation E=x+y−x*y/100): 163.4 | Growth (Severity, 0 to 4) Cmpd + 12% CO2 ([2]; Table 13, compound 0.14 mg/L + 12% CO2, evaluated 3 days after treatment, fan run continuously): 1.4 | Growth (Severity, 0 to 4) Cmpd ([2]; Table 13, compound alone 0.14 mg/L, evaluated 3 days after treatment, fan run continuously): 2.4 | Colby Calculation ([2]; Table 14, compound 0.0044 mg/L + 12% CO2, Colby equation E=x+y−x*y/100): 114.8 | Growth (Severity, 0 to 4) Cmpd + 12% CO2 ([2]; Table 14, compound 0.0044 mg/L + 12% CO2, evaluated 3 days after treatment, fan continuous): 3.2 | Colby Calculation ([2]; Table 14, compound 0.0088 mg/L + 12% CO2, Colby equation E=x+y−x*y/100): 502.5 | Growth (Severity, 0 to 4) Cmpd + 12% CO2 ([2]; Table 14, compound 0.0088 mg/L + 12% CO2, evaluated 3 days after treatment, fan continuous): 0.6 | Growth (Severity, 0 to 4) Cmpd ([2]; Table 14, compound alone 0.0044 mg/L, evaluated 3 days after treatment, fan continuous): 3.4 | Growth (Severity, 0 to 4) Cmpd ([2]; Table 14, compound alone 0.0088 mg/L, evaluated 3 days after treatment, fan continuous): 3.3
